Like-named read-outs stand apart in the source and are kept apart here.
Columns and labels:
Type in all cases: cell-based, human
MB9812 cells = assay: FLIPR calcium flux assay, tastant response in MB9812 cells
Procedure: Calcium flux assays were performed as previously described in Strachan et al., “Ribosomal S6 kinase 2 directly phosphorylates the 5-hydroxytryptamine 2A (5-HT2A) serotonin receptor, thereby modulating 5-HT2A signaling,” J Biol Chem 284:5557-5573 (2009). MB9812, NCI-H520 or NCI-H522 cells were trypsinized, counted, and seeded onto clear-bottomed 96 well plates (Greiner Bio-One; Monroe, N.C.) pre-coated with poly-D-lysine, at a density of 7.5×10^5 cells per well. After a 24 hour incubation, media was removed and replaced with a […] assay buffer (20 mM HEPES, 1× HBSS, 2.5 mM probenecid, and Ca^2+ assay dye, pH 7.4) (FLIPR® Calcium Assay Kit; Molecular Device Corp, Sunnyvale, Calif.). After a 1-hour incubation at 37° C., during which the cells were allowed to take up the dye, fluorescence responses of cells were measured with a FLIPRTETRA (Molecular Device Corp; Sunnyvale, Calif.) device upon the addition of variable concentrations of tastant, or vehicle, in the presence of assay buffer (20 mM HEPES, pH 7.4, 1× Hanks Balanced Salt [Invitrogen; Carlsbad, Calif.] and 2.5 mM probenecid). After data acquisition, a subsequent addition of […] was injected into each well, and fluorescence was measured again. Net peak responses to tastants were normalized to net peak responses to thapsigargin. Responses were compared with that of wild-type control MB9812, NCI-H520 or NCI-H522 cells. Statistical and graphical analyses were performed using Prism v. 5.0b (GraphPad Software; La Jolla, Calif.).
MB9812, NCI-H520 and NCI-H522 cells were selected for taste stimulation. The cells were loaded with fluorescent calcium-sensitive dye, treated with a variety of tastants, and monitored for intracellular calcium release with a FLIPR imaging device.

NCI-H520 cells = assay: FLIPR calcium flux assay, tastant response in NCI-H520 cells
Procedure: (§1) Calcium flux assays were performed as previously described in Strachan et al., “Ribosomal S6 kinase 2 directly phosphorylates the 5-hydroxytryptamine 2A (5-HT2A) serotonin receptor, thereby modulating 5-HT2A signaling,” J Biol Chem 284:5557-5573 (2009). MB9812, NCI-H520 or NCI-H522 cells were trypsinized, counted, and seeded onto clear-bottomed 96 well plates (Greiner Bio-One; Monroe, N.C.) pre-coated with poly-D-lysine, at a density of 7.5×10^5 cells per well. After a 24 hour incubation, media was removed and replaced with a […] assay buffer (20 mM HEPES, 1× HBSS, 2.5 mM probenecid, and Ca^2+ assay dye, pH 7.4) (FLIPR® Calcium Assay Kit; Molecular Device Corp, Sunnyvale, Calif.). After a 1-hour incubation at 37° C., during which the cells were allowed to take up the dye, fluorescence responses of cells were measured with a FLIPRTETRA (Molecular Device Corp; Sunnyvale, Calif.) device upon the addition of variable concentrations of tastant, or vehicle, in the presence of assay buffer (20 mM HEPES, pH 7.4, 1× Hanks Balanced Salt [Invitrogen; Carlsbad, Calif.] and 2.5 mM probenecid). After data acquisition, a subsequent addition of […] was injected into each well, and fluorescence was measured again. Net peak responses to tastants were normalized to net peak responses to thapsigargin. […]

NCI-H522 cells = assay: FLIPR calcium flux assay, tastant response in NCI-H522 cells
Procedure: as §1

How did the “cell response to tastant (increase in intracellular calcium, FLIPR calcium flux)” value (MB9812 cells) turn out when `CC[N+](CC)(CC(=O)Nc1c(C)cccc1C)Cc1ccccc1` [denatonium-B, denatonium benzoate] was run?
Its value is “respond”.

And the “cell response to tastant (increase in intracellular calcium, FLIPR calcium flux)” value (MB9812 cells; listed as denatonium B)?
The value was “response”.

And the “cell response to tastant (increase in intracellular calcium, FLIPR calcium flux)” value (NCI-H520 cells)?
Its value is “respond”.

And the “cell response to tastant (increase in intracellular calcium, FLIPR calcium flux)” value (NCI-H522 cells)?
The value was “respond”.

Which “cell response to tastant (increase in intracellular calcium, FLIPR calcium flux)” value (NCI-H520 cells) does the source give for `C=C1C[C@@]23CC[C@H]4[C@@](C)(CCC[C@@]4(C)C(=O)O[C@@H]4O[C@H](CO)[C@@H](O)[C@H](O)[C@H]4O)[C@@H]2CC[C@]1(O[C@@H]1O[C@H](CO)[C@@H](O)[C@H](O[C@@H]2O[C@H](CO)[C@@H](O)[C@H](O)[C@H]2O)[C@H]1O[C@@H]1O[C@H](CO)[C@@H](O)[C@H](O)[C@H]1O)C3` [Rebaudioside A] here?
The value was “respond”.

For `OC[C@H]1O[C@@](CO)(O[C@H]2O[C@H](CO)[C@@H](O)[C@H](O)[C@H]2O)[C@@H](O)[C@@H]1O` [sucrose], which “cell response to tastant (increase in intracellular calcium, FLIPR calcium flux)” value (MB9812 cells) is on record?
The value was “response”.

With `O=C(CO)[C@@H](O)[C@H](O)[C@H](O)CO` [fructose] as the compound, how does the “cell response to tastant (increase in intracellular calcium, FLIPR calcium flux)” value (MB9812 cells) read?
Its value is “response”.

Source: patent US20130040317A1, “CELL LINES COMPRISING ENDOGENOUS TASTE RECEPTORS AND THEIR USES” (THE UNIVERSITY OF NORTH CAROLINA AT CHAPEL HILL, priority 2011, published 2013)
